In patent publication US20240043439A1, “COMPOUNDS AS C5AR INHIBITORS” (Kira Pharmaceuticals (Suzhou) Ltd., priority 2020, published 2024):
pIC50: −log10 of the molar value.

Assays:
[1] = molecular target: human C5a receptor (C5aR) (Homo sapiens (Human), UniProt P21730); assay: Inhibition of C5a-C5aR binding (biotinylated human C5a, U937/C5aR cells, FACS)
Method in brief: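 U937 cells stably expressing human C5aR, 3×10^6 cells/ml in PBS+0.1% BSA, were co-incubated with compound and biotinylated human C5a (30 nM, working solution) on ice for 120 min. Bound ligand was stained with FITC-streptavidin for 30 min on ice and read by flow cytometry.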

C5aR [2] = molecular target: T1, C5aR (Homo sapiens (Human), UniProt P21730); assay: Inhibition of C5a-C5aR binding determined by cell migration assay (U937/C5aR cells); format: cell-based; details: U937/C5aR cell migration towards human C5a, 180 min
Description: Migration assay was performed by using polycarbonate membrane with 3.0 µm pore (Corning). U937/C5aR cells were collected and washed twice by PBS; cells were suspended in Hank's balanced salt solution (HBSS)+1% FBS buffer at the density of 6×10^6 cells/ml. Cells were premixed with compound and added to insert well, ligand human C5a and compound were added to bottom well in order, gently mix, incubate for 30 min at 37° C., […]. Put insert plate into bottom well, migrate for 180 min at 37° C., […]. Gently remove the insert well, add 50 μl CellTiter-Glo (Promega), gently shaking for 5 min at room temperature, transfer 150 μl mixture to black plate and read luminescence intensity by
microplate reader (BioTek).

C5aR [3] = molecular target: T1, C5aR; assay: Calcium mobilization (U937/C5aR or HEK293/C5aR cells, FLIPR); format: cell-based; details: agonist human C5a at EC80, FLIPR
Method in brief: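 U937 or HEK293 cells expressing human C5aR, plated overnight, then preincubated 60 min with compound. After Fluo-4 Direct dye loading (50 min at 37 °C, 10 min at room temperature), intracellular calcium rise on FLIPR was triggered by human C5a agonist at EC80.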

human C5a receptor (C5aR), sequence (P21730 whole entry): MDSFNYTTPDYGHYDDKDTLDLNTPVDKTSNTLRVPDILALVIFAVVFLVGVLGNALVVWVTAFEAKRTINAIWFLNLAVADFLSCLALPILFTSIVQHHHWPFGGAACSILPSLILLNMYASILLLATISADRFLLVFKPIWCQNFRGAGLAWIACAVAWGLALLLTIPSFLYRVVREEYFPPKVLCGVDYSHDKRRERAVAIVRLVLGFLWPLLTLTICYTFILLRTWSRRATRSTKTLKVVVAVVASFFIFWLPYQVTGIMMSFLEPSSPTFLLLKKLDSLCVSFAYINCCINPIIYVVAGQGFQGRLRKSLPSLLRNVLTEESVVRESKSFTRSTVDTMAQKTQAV
T1 sequence (P21730 whole entry): as above

## Cc1cccc(F)c1C(=O)N1C2CCC[C@@H]2C[C@H](C(=O)Nc2ccc3cccnc3c2)[C@@H]1c1ccc(NC2CCCC2)cc1 (mixture of isomers) [Compound 73, cis-2-(4-(cyclopentylamino)phenyl)-1-(2-fluoro-6-methylbenzoyl)-N-(quinolin-7-yl)octahydro-1H-cyclopenta[b]pyridine-3-carboxamide]
[1]
  pIC50: 6.30 to 7.30
C5aR [2]
  pIC50: 6.30 to 7.30
C5aR [3]
  pIC50: 6.30 to 7.30

## Cc1cccc(F)c1C(=O)N1[C@@H]2CCC[C@@H]2C[C@H](C(=O)Nc2ccc3cnn(C4COC4)c3c2)[C@@H]1c1ccc(NC2CCCC2)cc1 (racemic) [Compound 59, cis-2-(4-(cyclopentylamino)phenyl)-1-(2-fluoro-6-methylbenzoyl)-N-(1-(oxetan-3-yl)-1H-indazol-6-yl)octahydro-1H-cyclopenta[b]pyridine-3-carboxamide]
[1]
  pIC50: 6.30 to 7.30
C5aR [2]
  pIC50: 6.30 to 7.30
C5aR [3]
  pIC50: 5.70 to 6.30

## Cc1ccc(NC(=O)[C@H]2C[C@H]3CCC[C@H]3N(C(=O)c3c(C)cccc3F)[C@H]2c2ccc(NC3CCCC3)cc2)cc1C#N (racemic) [Compound 62, cis-N-(3-cyano-4-methylphenyl)-2-(4-(cyclopentylamino)phenyl)-1-(2-fluoro-6-methylbenzoyl)octahydro-1H-cyclopenta[b]pyridine-3-carboxamide]
[1]
  pIC50: 6.30 to 7.30
C5aR [2]
  pIC50: 6.30 to 7.30
C5aR [3]
  pIC50: 6.30 to 7.30

## Cc1cccc(F)c1C(=O)N1[C@@H]2CCC[C@@H]2C[C@H](C(=O)Nc2ccc3cnn(C)c3c2)[C@@H]1c1ccc(NC2CCCC2)cc1 (racemic) [Compound 66, cis-2-(4-(cyclopentylamino)phenyl)-1-(2-fluoro-6-methylbenzoyl)-N-(1-methyl-1H-indazol-6-yl)octahydro-1H-cyclopenta[b]pyridine-3-carboxamide]
C5aR [2]
  pIC50: > 7.30
C5aR [3]
  pIC50: 6.30 to 7.30

## Cc1cccc(F)c1C(=O)N1[C@@H]2CCC[C@@H]2C[C@H](C(=O)Nc2ccc3ncoc3c2)[C@@H]1c1ccc(NC2CCCC2)cc1 (racemic) [Compound 67, cis-N-(benzo[d]oxazol-6-yl)-2-(4-(cyclopentylamino)phenyl)-1-(2-fluoro-6-methylbenzoyl)octahydro-1H-cyclopenta[b]pyridine-3-carboxamide]
[1]
  pIC50: > 7.30
C5aR [2]
  pIC50: 6.30 to 7.30
C5aR [3]
  pIC50: 6.30 to 7.30

## Cc1ccc(NC(=O)[C@H]2CC[C@@H]3Cc4ccccc4C(=O)N3C2c2ccc(NC3CCCC3)cc2)cc1C(F)(F)F (relative stereo) [Compound 43, cis-4-(4-(cyclopentylamino)phenyl)-N-(4-methyl-3-(trifluoromethyl)phenyl)-6-oxo-1,3,4,6,11,11a-hexahydro-2H-pyrido[1,2-b]isoquinoline-3-carboxamide]
C5aR [2]
  pIC50: < 5.30
C5aR [3]
  pIC50: 5.00 to 5.70

## Cc1ccc(NC(=O)C2C[C@@H]3CN(C)C[C@@H]3N(C(=O)c3c(C)cccc3F)C2c2ccc(N(C)C3CCCC3)cc2)cc1C(F)(F)F (relative stereo) [Compound 144, cis-2-(4-(cyclopentyl(methyl)amino)phenyl)-1-(2-fluoro-6-methylbenzoyl)-6-methyl-N-(4-methyl-3-(trifluoromethyl)phenyl)octahydro-1H-pyrrolo[3,4-b]pyridine-3-carboxamide]
C5aR [2]
  pIC50: 6.30 to 7.30
C5aR [3]
  pIC50: 5.00 to 5.70

## Cc1ccc(NC(=O)C2C[C@@H]3CCC[C@@H]3N(C(=O)c3c(C)cccc3F)C2c2ccc(NC3CCCC3)cc2)cc1C(F)(F)F (relative stereo) [Compound 193, cis-2-(4-(cyclopentylamino)phenyl)-1-(2-fluoro-6-methylbenzoyl)-N-(4-methyl-3-(trifluoromethyl)phenyl)octahydro-1H-cyclopenta[b]pyridine-3-carboxamide]
C5aR [2]
  pIC50: 6.30 to 7.30
C5aR [3]
  pIC50: > 7.30

## Cc1ccc(NC(=O)[C@H]2CCCN(C(=O)c3c(C)cccc3F)[C@H]2C2CCC3(CCOC3)CC2)cc1C(F)(F)F (relative stereo) [Compound 203, cis-1-(2-fluoro-6-methylbenzoyl)-N-(4-methyl-3-(trifluoromethyl)phenyl)-2-(2-oxaspiro[4.5]decan-8-yl)piperidine-3-carboxamide]
C5aR [2]
  pIC50: 5.70 to 6.30
C5aR [3]
  pIC50: 5.00 to 5.70

## Cc1ccc(NC(=O)[C@@H]2CC(O)CN(C(=O)c3c(C)cccc3F)[C@@H]2c2ccc(NC3CCCC3)cc2)cc1C(F)(F)F (relative stereo) [Compound 204, cis-2-(4-(cyclopentylamino)phenyl)-1-(2-fluoro-6-methylbenzoyl)-5-hydroxy-N-(4-methyl-3-(trifluoromethyl)phenyl)piperidine-3-carboxamide]
C5aR [2]
  pIC50: 6.30 to 7.30
C5aR [3]
  pIC50: 5.00 to 5.70

## Cc1cccc(F)c1C(=O)N1C2CCCC2CC(C(=O)Nc2ccc3c(cnn3C)c2)C1c1ccc(CN2CCC[C@@H]2C(F)(F)F)cc1 (stereo in doubt) [Compound 205, cis-1-(2-fluoro-6-methylbenzoyl)-N-(1-methyl-1H-indazol-5-yl)-2-(4-(((R)-2-(trifluoromethyl)pyrrolidin-1-yl)methyl)phenyl)octahydro-1H-cyclopenta[b]pyridine-3-carboxamide]
C5aR [2]
  pIC50: > 7.30

## Cc1ccc(NC(=O)[C@H]2CCCN(S(=O)(=O)c3c(F)c(F)c(F)c(F)c3F)[C@H]2c2ccc(NC3CCCC3)cc2)cc1C(F)(F)F [Compound 37, (2R,3S)-2-(4-(cyclopentylamino)phenyl)-N-(4-methyl-3-(trifluoromethyl)phenyl)-1-((perfluorophenyl)sulfonyl)piperidine-3-carboxamide]
C5aR [2]
  pIC50: < 5.30
C5aR [3]
  pIC50: 5.00 to 5.70

## Cc1ccc(NC(=O)[C@H]2CCCN(c3nccc4cccnc34)[C@H]2c2ccc(N(C(=O)OCc3ccccc3)C3CCCC3)cc2)cc1C(F)(F)F [Compound 164, benzyl cyclopentyl(4-((2R,3S)-3-((4-methyl-3-(trifluoromethyl)phenyl)carbamoyl)-1-(1,7-naphthyridin-8-yl)piperidin-2-yl)phenyl)carbamate]
C5aR [2]
  pIC50: 5.30 to 5.70
C5aR [3]
  pIC50: 5.00 to 5.70

## Cc1ccc(NC(=O)[C@H]2CCCN[C@H]2c2ccc(N(c3nccc4cccnc34)C3CCCC3)cc2)cc1C(F)(F)F [Compound 168, (2R,3S)-2-(4-(cyclopentyl(1,7-naphthyridin-8-yl)amino)phenyl)-N-(4-methyl-3-(trifluoromethyl)phenyl)piperidine-3-carboxamide]
C5aR [2]
  pIC50: < 5.30
C5aR [3]
  pIC50: 5.00 to 5.70

## Cc1cccc(F)c1C(=O)N1CCC[C@H](c2nc3cc(C(C)(C)C)ccc3o2)[C@@H]1c1ccc(NC2CCCC2)cc1 [Compound 181, ((2R,3S)-3-(5-(tert-butyl)benzo[d]oxazol-2-yl)-2-(4-(cyclopentylamino)phenyl)piperidin-1-yl)(2-fluoro-6-methylphenyl)methanone]
C5aR [2]
  pIC50: < 5.30
C5aR [3]
  pIC50: 5.00 to 5.70

## Cc1cccc(F)c1C(=O)N1C2CCCC2CC(C(=O)Nc2ccc3c(c2)CCN(C(=O)OC(C)(C)C)C3)C1c1ccc(NC2CCCC2)cc1 (stereo not drawn) [Compound 202, tert-butyl 6-cis-2-(4-(cyclopentylamino)phenyl)-1-(2-fluoro-6-methylbenzoyl)octahydro-1H-cyclopenta[b]pyridine-3-carboxamido)-3,4-dihydroisoquinoline-2(1H)-carboxylate]
[1]
  pIC50: < 5.30
C5aR [3]
  pIC50: 5.00 to 5.70
